In PMC7206119, “RIP1 inhibition blocks inflammatory diseases but not tumor growth or metastases” (Cell Death and Differentiation, 2019):

Experiments:
Experiment in all cases: biochemical
Set-up in all cases: DiscoverX kinase panel, active-site competition binding (KINOMEscan type), percent of control at one concentration
Conditions in all cases: competition binding, percent of control
ALK(L1196M) = ALK(L1196M) (Homo sapiens, UniProt Q9UM73, L1196M)
BMPR2 = BMPR2 (Homo sapiens, UniProt Q13873)
BRAF = BRAF (Homo sapiens, UniProt P15056)
CAMK2D = CAMK2D (Homo sapiens, UniProt Q13557)
CASK = CASK (Homo sapiens, UniProt O14936)
FGFR3 = FGFR3 (Homo sapiens, UniProt P22607)
FLT3(ITD,F691L) = FLT3(ITD,F691L) (Homo sapiens, UniProt P36888, F691L/ITD)
IRAK3 = IRAK3 (Homo sapiens, UniProt Q9Y616)
KIT = KIT (Homo sapiens, UniProt P10721)
KIT(V559D,V654A) = KIT(V559D,V654A) (Homo sapiens, UniProt P10721, V559D/V654A)
MAP3K4 = MAP3K4 (Homo sapiens, UniProt Q9Y6R4)
MAPKAPK2 = MAPKAPK2 (Homo sapiens, UniProt P49137)
MET(Y1235D) = MET(Y1235D) (Homo sapiens, UniProt P08581, Y1235D)
MKNK2 = MKNK2 (Homo sapiens, UniProt Q9HBH9)
PRKG2 = PRKG2 (Homo sapiens, UniProt Q13237)
[1] = target: T1, RPS6KA4(Kin.Dom.2-C-terminal) (Homo sapiens, UniProt O75676)
T1 construct: Kin.Dom.2-C-terminal

SGK = target: T2, SGK (Homo sapiens, UniProt O00141)
T2 construct: gene SGK1

SNARK = target: T3, SNARK (Homo sapiens, UniProt Q9H093)
T3 construct: gene NUAK2

TYRO3 = TYRO3 (Homo sapiens, UniProt Q06418)
WEE1 = WEE1 (Homo sapiens, UniProt P30291)
WNK2 = WNK2 (Homo sapiens, UniProt Q9Y3S1)

Sequence of MAP3K4 (Q9Y6R4 whole entry): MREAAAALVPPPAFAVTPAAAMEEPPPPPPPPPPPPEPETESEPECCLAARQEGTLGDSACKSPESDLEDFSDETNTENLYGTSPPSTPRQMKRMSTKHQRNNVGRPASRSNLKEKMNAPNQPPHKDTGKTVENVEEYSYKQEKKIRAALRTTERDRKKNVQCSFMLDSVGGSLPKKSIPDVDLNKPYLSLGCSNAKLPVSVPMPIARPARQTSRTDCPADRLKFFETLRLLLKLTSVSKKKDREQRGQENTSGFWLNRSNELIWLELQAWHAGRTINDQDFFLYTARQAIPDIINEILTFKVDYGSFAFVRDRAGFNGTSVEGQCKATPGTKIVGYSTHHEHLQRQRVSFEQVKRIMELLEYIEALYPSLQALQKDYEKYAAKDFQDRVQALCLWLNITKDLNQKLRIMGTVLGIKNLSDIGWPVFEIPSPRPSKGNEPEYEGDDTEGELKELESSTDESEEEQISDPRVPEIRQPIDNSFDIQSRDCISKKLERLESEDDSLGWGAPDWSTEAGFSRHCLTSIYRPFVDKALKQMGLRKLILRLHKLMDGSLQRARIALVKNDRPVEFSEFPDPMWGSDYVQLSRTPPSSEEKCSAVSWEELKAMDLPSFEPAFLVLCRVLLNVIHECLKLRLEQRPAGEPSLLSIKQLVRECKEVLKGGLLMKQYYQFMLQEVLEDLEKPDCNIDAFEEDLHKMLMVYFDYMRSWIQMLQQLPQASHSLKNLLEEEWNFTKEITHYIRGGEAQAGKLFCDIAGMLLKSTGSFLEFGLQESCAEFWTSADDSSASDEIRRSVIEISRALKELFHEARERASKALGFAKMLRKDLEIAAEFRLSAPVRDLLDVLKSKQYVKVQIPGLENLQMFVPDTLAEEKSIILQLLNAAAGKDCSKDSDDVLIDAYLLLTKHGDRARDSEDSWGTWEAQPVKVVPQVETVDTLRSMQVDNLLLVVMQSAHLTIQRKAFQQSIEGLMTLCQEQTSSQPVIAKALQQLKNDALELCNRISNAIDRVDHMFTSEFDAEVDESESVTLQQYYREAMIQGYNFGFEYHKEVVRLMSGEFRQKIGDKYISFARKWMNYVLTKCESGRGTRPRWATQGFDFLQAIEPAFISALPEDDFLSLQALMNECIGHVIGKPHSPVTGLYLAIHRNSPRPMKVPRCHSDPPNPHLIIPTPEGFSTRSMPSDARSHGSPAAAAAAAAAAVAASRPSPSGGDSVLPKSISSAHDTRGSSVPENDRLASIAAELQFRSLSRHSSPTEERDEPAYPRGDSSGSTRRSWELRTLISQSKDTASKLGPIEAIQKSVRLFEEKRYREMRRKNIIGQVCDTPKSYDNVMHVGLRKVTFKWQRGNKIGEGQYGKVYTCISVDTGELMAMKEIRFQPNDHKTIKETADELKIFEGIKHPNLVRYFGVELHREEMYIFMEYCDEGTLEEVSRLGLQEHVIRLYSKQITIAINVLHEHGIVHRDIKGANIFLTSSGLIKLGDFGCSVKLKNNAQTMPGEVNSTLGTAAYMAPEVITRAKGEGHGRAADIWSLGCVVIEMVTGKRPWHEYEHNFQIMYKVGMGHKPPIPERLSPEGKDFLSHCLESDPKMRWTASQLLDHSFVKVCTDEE
Sequence of MAPKAPK2 (P49137 whole entry): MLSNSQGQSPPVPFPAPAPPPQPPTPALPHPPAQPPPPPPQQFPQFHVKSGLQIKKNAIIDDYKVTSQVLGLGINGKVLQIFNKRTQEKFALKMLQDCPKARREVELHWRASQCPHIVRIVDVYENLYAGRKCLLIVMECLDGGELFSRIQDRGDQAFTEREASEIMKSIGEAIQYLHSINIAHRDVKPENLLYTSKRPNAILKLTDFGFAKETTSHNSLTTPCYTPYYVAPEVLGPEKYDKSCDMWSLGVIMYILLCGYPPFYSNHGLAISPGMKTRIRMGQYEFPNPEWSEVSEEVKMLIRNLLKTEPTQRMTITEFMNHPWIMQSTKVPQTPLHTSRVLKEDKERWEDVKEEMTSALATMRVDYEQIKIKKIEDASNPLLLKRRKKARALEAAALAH
T1 sequence (O75676 whole entry): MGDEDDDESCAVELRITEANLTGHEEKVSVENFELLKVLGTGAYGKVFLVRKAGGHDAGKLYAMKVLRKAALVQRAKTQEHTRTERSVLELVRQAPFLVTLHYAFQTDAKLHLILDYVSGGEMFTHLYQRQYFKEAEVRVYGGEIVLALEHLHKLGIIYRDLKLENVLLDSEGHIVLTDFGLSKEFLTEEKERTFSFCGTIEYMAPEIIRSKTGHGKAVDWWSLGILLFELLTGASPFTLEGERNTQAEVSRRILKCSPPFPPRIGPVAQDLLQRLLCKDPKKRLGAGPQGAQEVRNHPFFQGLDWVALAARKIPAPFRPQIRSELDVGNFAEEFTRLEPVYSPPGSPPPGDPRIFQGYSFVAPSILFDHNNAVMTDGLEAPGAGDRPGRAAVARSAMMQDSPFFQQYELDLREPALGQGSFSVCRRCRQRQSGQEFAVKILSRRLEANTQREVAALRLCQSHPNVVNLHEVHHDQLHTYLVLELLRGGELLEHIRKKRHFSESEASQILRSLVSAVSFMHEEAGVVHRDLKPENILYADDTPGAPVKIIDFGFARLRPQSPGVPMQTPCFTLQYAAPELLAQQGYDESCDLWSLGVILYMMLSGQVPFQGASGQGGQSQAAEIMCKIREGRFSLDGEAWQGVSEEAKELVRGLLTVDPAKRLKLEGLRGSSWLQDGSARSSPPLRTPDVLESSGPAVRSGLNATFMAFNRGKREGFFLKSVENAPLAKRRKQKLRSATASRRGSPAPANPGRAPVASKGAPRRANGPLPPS
Sequence of KIT(V559D,V654A) (P10721 whole entry V559D/V654A): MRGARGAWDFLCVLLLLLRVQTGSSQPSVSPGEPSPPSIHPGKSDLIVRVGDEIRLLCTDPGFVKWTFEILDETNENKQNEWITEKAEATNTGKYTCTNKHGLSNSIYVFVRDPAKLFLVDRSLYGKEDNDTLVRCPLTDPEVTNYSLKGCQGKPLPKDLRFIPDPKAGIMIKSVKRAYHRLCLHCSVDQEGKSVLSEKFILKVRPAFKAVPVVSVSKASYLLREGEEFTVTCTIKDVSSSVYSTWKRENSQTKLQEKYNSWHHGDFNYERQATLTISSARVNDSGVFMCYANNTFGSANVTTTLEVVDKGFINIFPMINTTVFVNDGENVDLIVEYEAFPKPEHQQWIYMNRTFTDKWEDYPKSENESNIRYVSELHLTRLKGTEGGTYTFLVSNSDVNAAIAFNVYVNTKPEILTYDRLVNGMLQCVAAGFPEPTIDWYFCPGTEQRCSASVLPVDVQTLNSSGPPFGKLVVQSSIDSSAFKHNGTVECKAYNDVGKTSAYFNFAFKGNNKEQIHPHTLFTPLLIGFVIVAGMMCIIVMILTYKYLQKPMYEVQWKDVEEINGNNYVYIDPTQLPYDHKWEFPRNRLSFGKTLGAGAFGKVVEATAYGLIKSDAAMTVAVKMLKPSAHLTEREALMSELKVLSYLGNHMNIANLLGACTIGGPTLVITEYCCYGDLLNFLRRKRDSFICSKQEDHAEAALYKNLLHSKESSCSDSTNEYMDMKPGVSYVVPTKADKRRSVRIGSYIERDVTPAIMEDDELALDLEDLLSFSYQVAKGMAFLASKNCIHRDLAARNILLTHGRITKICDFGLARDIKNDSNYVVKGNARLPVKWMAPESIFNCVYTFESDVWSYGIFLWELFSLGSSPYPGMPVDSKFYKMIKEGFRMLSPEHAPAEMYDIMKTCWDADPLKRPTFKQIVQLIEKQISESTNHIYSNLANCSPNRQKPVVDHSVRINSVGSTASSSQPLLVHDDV
Sequence of CAMK2D (Q13557 whole entry): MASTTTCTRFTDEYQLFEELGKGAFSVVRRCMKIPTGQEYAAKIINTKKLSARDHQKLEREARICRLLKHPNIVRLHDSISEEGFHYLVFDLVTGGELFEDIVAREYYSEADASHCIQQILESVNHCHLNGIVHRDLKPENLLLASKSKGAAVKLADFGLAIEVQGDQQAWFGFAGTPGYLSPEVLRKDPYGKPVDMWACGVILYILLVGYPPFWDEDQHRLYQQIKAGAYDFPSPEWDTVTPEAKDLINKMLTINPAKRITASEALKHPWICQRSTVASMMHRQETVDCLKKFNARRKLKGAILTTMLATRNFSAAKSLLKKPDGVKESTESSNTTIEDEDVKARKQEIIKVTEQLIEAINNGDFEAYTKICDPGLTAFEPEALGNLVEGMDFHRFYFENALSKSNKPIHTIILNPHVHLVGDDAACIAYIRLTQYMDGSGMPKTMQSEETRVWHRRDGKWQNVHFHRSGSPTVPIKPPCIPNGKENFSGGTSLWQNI
Sequence of WEE1 (P30291 whole entry): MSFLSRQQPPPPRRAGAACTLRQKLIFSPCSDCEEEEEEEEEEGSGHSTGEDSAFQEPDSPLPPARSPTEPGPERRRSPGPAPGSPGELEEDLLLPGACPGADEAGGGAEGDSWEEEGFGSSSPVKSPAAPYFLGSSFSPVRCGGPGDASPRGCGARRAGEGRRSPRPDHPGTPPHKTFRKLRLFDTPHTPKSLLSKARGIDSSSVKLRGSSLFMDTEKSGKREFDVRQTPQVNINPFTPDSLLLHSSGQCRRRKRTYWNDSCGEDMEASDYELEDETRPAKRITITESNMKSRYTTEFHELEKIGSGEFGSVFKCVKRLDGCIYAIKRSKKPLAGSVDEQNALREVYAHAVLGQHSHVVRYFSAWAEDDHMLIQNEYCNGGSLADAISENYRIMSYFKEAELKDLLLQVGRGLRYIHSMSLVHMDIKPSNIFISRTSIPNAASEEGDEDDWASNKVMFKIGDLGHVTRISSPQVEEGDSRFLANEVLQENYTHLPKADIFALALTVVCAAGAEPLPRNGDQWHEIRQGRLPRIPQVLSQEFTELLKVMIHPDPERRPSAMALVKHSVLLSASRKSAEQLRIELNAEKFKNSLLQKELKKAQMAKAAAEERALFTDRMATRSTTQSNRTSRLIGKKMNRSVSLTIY
Sequence of KIT (P10721 whole entry): as the sequence (P10721 whole entry V559D/V654A) above, with D559V, A654V counted along it

Compound: COc1cc2c(cn1)N(C)C(=O)[C@@H](NC(=O)c1nc3n(n1)[C@H](c1ccccc1)CC3)CC2 [GNE684, (S)-N-((S)-7-methoxy-1-methyl-2-oxo-2,3,4,5-tetrahydro-1H-pyrido[3,4-b]azepin-3-yl)-5-phenyl-6,7-dihydro-5H-pyrrolo[1,2-b][1,2,4]triazole-2-carboxamide]
- remaining binding at 10 µM (ALK(L1196M)): 78%
- remaining binding at 10 µM (BMPR2): 100%
- remaining binding at 10 µM (BRAF): 98%
- remaining binding at 10 µM (CAMK2D): 100%
- remaining binding at 10 µM (CASK): 72%
- remaining binding at 10 µM (FGFR3): 100%
- remaining binding at 10 µM (FLT3(ITD,F691L)): 98%
- remaining binding at 10 µM (IRAK3): 100%
- remaining binding at 10 µM (KIT): 95%
- remaining binding at 10 µM (KIT(V559D,V654A)): 100%
- remaining binding at 10 µM (MAP3K4): 92%
- remaining binding at 10 µM (MAPKAPK2): 100%
- remaining binding at 10 µM (MET(Y1235D)): 82%
- remaining binding at 10 µM (MKNK2): 96%
- remaining binding at 10 µM (PRKG2): 94%
- remaining binding at 10 µM [1]: 100%
- remaining binding at 10 µM (SGK): 100%
- remaining binding at 10 µM (SNARK): 100%
- remaining binding at 10 µM (TYRO3): 97%
- remaining binding at 10 µM (WEE1): 69%
- remaining binding at 10 µM (WNK2): 83%
